Laboratory results taken from PubChem BioAssay AID1918945 (Molecular Pharmacology Branch, DTP, NCI, 2023).
pIC50: −log10 of the molar value.

Test system: 883617-216-R-J1-PDC complex spheroid viability
Assay: Anticancer human tumor 883617-216-R-J1-PDC patient-derived bladder carcinoma cell line growth inhibition
Details: for pIC50: curve of first compound; for viability, T/C: stronger effect = lower value
Outline: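 Complex spheroids of tumor cells with HUVEC and human MSCs, exposed to iadademstat combined with other agents. Each agent tested in half-log steps from near clinical Cmax (else 10 microM top), DMSO ≤0.25%.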

[1] = second compound 0.1 µM, first compound 0.0316 µM
[2] = second compound 0.1 µM, first compound 0.1 µM
[3] = second compound 0.1 µM, first compound 0.316 µM
[4] = second compound 0.1 µM, first compound 1 µM
[5] = second compound 0.1 µM, first compound 3.16 µM
[6] = second compound 0.1 µM, first compound 10 µM
[7] = second compound 0.316 µM, first compound 0.0316 µM
[8] = second compound 0.316 µM, first compound 0.1 µM
[9] = second compound 0.316 µM, first compound 0.316 µM
[10] = second compound 0.316 µM, first compound 1 µM
[11] = second compound 0.316 µM, first compound 3.16 µM
[12] = second compound 0.316 µM, first compound 10 µM
[13] = second compound 1 µM, first compound 0.0316 µM
[14] = second compound 1 µM, first compound 0.1 µM
[15] = second compound 1 µM, first compound 0.316 µM
[16] = second compound 1 µM, first compound 1 µM
[17] = second compound 1 µM, first compound 3.16 µM
[18] = second compound 1 µM, first compound 10 µM
[19] = second compound 3.16 µM, first compound 0.0316 µM
[20] = second compound 3.16 µM, first compound 0.1 µM
[21] = second compound 3.16 µM, first compound 0.316 µM
[22] = second compound 3.16 µM, first compound 1 µM
[23] = second compound 3.16 µM, first compound 3.16 µM
[24] = second compound 3.16 µM, first compound 10 µM
[25] = second compound 10 µM, first compound 0.0316 µM
[26] = second compound 10 µM, first compound 0.1 µM
[27] = second compound 10 µM, first compound 0.316 µM
[28] = second compound 10 µM, first compound 1 µM
[29] = second compound 10 µM, first compound 3.16 µM
[30] = second compound 10 µM, first compound 10 µM
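Note: exposure lasted seven days after three days of spheroid growth.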
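Throughout, for viability, T/C: 100% = DMSO vehicle control luminescence.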

CC(C)c1c(-c2ccccc2)nc2c(C#N)c[nH]n2c1=O + NC1CCC(NC2CC2c2ccccc2)CC1
pIC50 (second compound 0.1 µM): < 5.00
pIC50 (second compound 0.316 µM): < 5.00
pIC50 (second compound 1 µM): < 5.00
pIC50 (second compound 3.16 µM): < 5.00
pIC50 (second compound 10 µM): < 5.00
viability, T/C [1]: 106%
viability, T/C [2]: 102%
viability, T/C [3]: 101%
viability, T/C [4]: 103%
viability, T/C [5]: 97.5%
viability, T/C [6]: 93.8%
viability, T/C [7]: 107%
viability, T/C [8]: 109%
viability, T/C [9]: 108%
viability, T/C [10]: 105%
viability, T/C [11]: 103%
viability, T/C [12]: 95%
viability, T/C [13]: 97.3%
viability, T/C [14]: 91.8%
viability, T/C [15]: 101%
viability, T/C [16]: 95%
viability, T/C [17]: 93.6%
viability, T/C [18]: 86%
viability, T/C [19]: 104%
viability, T/C [20]: 99.7%
viability, T/C [21]: 97.8%
viability, T/C [22]: 98.2%
viability, T/C [23]: 91.2%
viability, T/C [24]: 89.9%
viability, T/C [25]: 103%
viability, T/C [26]: 106%
viability, T/C [27]: 112%
viability, T/C [28]: 98.2%
viability, T/C [29]: 95.2%
viability, T/C [30]: 86.1%

CC1COCCN1c1cc(-c2ccnn2C)c2ccnc(-c3ccn[nH]3)c2n1 (stereo not given) + NC1CCC(NC2CC2c2ccccc2)CC1
pIC50 (second compound 0.1 µM): 7.40
pIC50 (second compound 0.316 µM): 7.49
pIC50 (second compound 1 µM): 7.47
pIC50 (second compound 3.16 µM): 7.35
pIC50 (second compound 10 µM): 7.34
viability, T/C (second compound 0.1 µM, first compound 0.00316 µM): 85%
viability, T/C (second compound 0.1 µM, first compound 0.01 µM): 62.2%
viability, T/C [1]: 55.7%
viability, T/C [2]: 41.2%
viability, T/C [3]: 33.5%
viability, T/C [4]: 31.5%
viability, T/C (second compound 0.316 µM, first compound 0.00316 µM): 89.8%
viability, T/C (second compound 0.316 µM, first compound 0.01 µM): 62%
viability, T/C [7]: 53.6%
viability, T/C [8]: 40.4%
viability, T/C [9]: 34%
viability, T/C [10]: 30.8%
viability, T/C (second compound 1 µM, first compound 0.00316 µM): 81.8%
viability, T/C (second compound 1 µM, first compound 0.01 µM): 60.2%
viability, T/C [13]: 50.4%
viability, T/C [14]: 43.8%
viability, T/C [15]: 35.1%
viability, T/C [16]: 28.4%
viability, T/C (second compound 3.16 µM, first compound 0.00316 µM): 76.3%
viability, T/C (second compound 3.16 µM, first compound 0.01 µM): 59%
viability, T/C [19]: 51.3%
viability, T/C [20]: 47.2%
viability, T/C [21]: 36.1%
viability, T/C [22]: 28.3%
viability, T/C (second compound 10 µM, first compound 0.00316 µM): 88.4%
viability, T/C (second compound 10 µM, first compound 0.01 µM): 66.7%
viability, T/C [25]: 52.7%
viability, T/C [26]: 45.5%
viability, T/C [27]: 32.1%
viability, T/C [28]: 25.5%

COc1ccc([C@@H](O)c2cc(-c3ncnc4cc(N5CCOCC5)ccc34)c(F)cc2Cl)nn1 + NC1CCC(NC2CC2c2ccccc2)CC1
pIC50 (second compound 0.1 µM): 5.92
pIC50 (second compound 0.316 µM): 5.86
pIC50 (second compound 1 µM): 5.88
pIC50 (second compound 3.16 µM): 5.97
pIC50 (second compound 10 µM): 5.81
viability, T/C [1]: 97.8%
viability, T/C [2]: 90.3%
viability, T/C [3]: 72%
viability, T/C [4]: 50.2%
viability, T/C [5]: 38.2%
viability, T/C [6]: 20.7%
viability, T/C [7]: 103%
viability, T/C [8]: 90.8%
viability, T/C [9]: 73.6%
viability, T/C [10]: 53.2%
viability, T/C [11]: 38.5%
viability, T/C [12]: 19.2%
viability, T/C [13]: 101%
viability, T/C [14]: 91.3%
viability, T/C [15]: 83.2%
viability, T/C [16]: 52.7%
viability, T/C [17]: 35.1%
viability, T/C [18]: 21%
viability, T/C [19]: 97.6%
viability, T/C [20]: 93.2%
viability, T/C [21]: 73.7%
viability, T/C [22]: 51.7%
viability, T/C [23]: 32.1%
viability, T/C [24]: 21.9%
viability, T/C [25]: 100%
viability, T/C [26]: 93.2%
viability, T/C [27]: 70.2%
viability, T/C [28]: 56.3%
viability, T/C [29]: 41.4%
viability, T/C [30]: 19.8%
